Source: US8697747B2, “Enhancing coagulation or reducing fibrinolysis” (THe UAB Research Foundation, priority 2009, dated 2014)

What was measured:
[1] = system: plasma from donors treated with warfarin; test: Thrombelastography/CLSM in plasma of warfarin-treated donors with or without tPA; assay type: biochemical, human; settings: warfarin-treated subjects, tPA 100 IU/mL; 100 μM CORM-2
Method: Pooled normal plasma (George King Bio-Medical, Overland Park, Kans.) anticoagulated with sodium citrate was utilized for experimentation. […] Plasma anticoagulated with sodium citrate procured from anonymous donors treated with warfarin was also obtained from the same vendor.
Plasma sample composition of experiments without tPA addition. The final volume for all subsequently described plasma sample mixtures was 359.6 μL. Sample composition consisted of 326 μL of plasma, 10 μL of tissue factor reagent (0.1% final concentration in dH2O; Instrumentation Laboratory, Lexington, Mass.), 3.6 μL of dimethyl sulfoxide (DMSO) or DMSO with CORM-2 (100 μM final concentration; Sigma-Aldrich, St. Louis, Mo.), and 20 μL of 200 mM CaCl2. Tissue factor stock was kept on ice prior to use and was remade every two hours. […] DMSO was added to dry CORM-2 just prior to placement into the plasma mixture. Six replicate experiments were performed with pooled normal plasma with or without CORM-2 added, whereas plasma obtained from subjects treated with warfarin underwent singlicate experiments with or without CORM-2 exposure.
Plasma sample composition of experiments with tPA addition. […]
Clot Lifespan Model Analyses. […] Time to maximum rate of lysis (TMRL): This is the time interval (sec) measured from the time of maximum strength to the time when the velocity of clot disintegration is maximal. […]

[2] = system: α2-antiplasmin deficient plasma; test: CLSM thrombelastography with tPA, α2-antiplasmin deficient plasma; assay type: biochemical, human
Method: Pooled normal plasma (George King Bio-Medical, Overland Park, Kans.) anticoagulated with sodium citrate was utilized for experimentation. […] Factor XIII (FXIII) deficient plasma anticoagulated with sodium citrate was also obtained from the same vendor.
Plasma Sample Composition. The final volume for all subsequently described plasma sample mixtures was 359.4 μL. Sample composition consisted of 316 μL of plasma; 10 μL of tissue factor (0.1% final concentration in 0.9% NaCl; Diagnostica Stago, Asnieres, France), 3.6 μL of dimethyl sulfoxide (DMSO) or DMSO with CORM-2 (Sigma-Aldrich, St. Louis, Mo.) or DMSO with inactivated CORM-2 (iCORM-2), 10 μL of tissue-type plasminogen activator (tPA, 580 U/μg, Genentech, Inc., San Francisco, Calif.) diluted with 10 mM potassium phosphate buffer (pH 7.4) for a final activity of 100 IU/mL, and 20 μL of 200 mM CaCl2. […] This concentration of CORM-2 was chosen because the concentration of CO released would be expected to be in the mid to lower ranges used in previously reported ex vivo, in vitro, and cell-based experiments (Motterlini et al. 2002; Megias et al. 2007; Chlopicki et al. 2006; Dong et al. 2008). […] (Motterlini et al. 2005). While CORM-2 decays slowly in DMSO, DMSO was added to the dry compound just prior to placement into the plasma mixture. The specific series of experiments are subsequently presented.
Assessment of the Effects of CORM-2 on CLSM Parameters in FXIII, PAI-1, TAFI and α2-antiplasmin Deficient Plasmas. These experiments were performed to elucidate the roles played by antifibrinolytic enzymes during CORM-2 mediated modulation of fibrinolysis. Samples of the various deficient plasmas were exposed to 0 or 100 μM of CORM-2 (n=8 per condition). Samples underwent CLSM analyses as subsequently described.
Clot Lifespan Model Analyses. As described in Example 1, plasma sample mixtures were placed in a disposable cup in a computer-controlled THROMBELASTOGRAPH® hemostasis system (Model 5000, Haemoscope Corp., Niles, Ill.), with addition of CaCl2 as the last step to initiate clotting. Data were collected until clot lysis time occurred. […] As this model involves complete fibrinolysis, TTG is equivalent to ACL, so ACL was not presented as it provides no additional information.
Statistical Analyses. Data are presented as median (1st, 3rd quartiles). […] Nonlinear and linear analyses and curve fitting of the various CORM-2 concentrations effects on CLSM variables were performed with commercially available software (SigmaPlot 11.0, Systat Software, Inc., San Jose, Calif.). Analyses of the effects of CORM-2 and iCORM-2 on CLSM variables in normal plasma were conducted with Kruskal-Wallis one way analysis of variance on ranks, whereas Mann-Whitney rank sum tests were used to assess the effects of CORM-2 on CLSM variables in the various immunodepleted/congenitally deficient plasma types (SigmaStat 3.1, Systat Software, Inc., San Jose, Calif.). Graphical representation of the data was generated with commercially available software (SigmaPlot 11.0, Systat Software, Inc., San Jose, Calif.; CorelDRAW 12.0, Corel Corporation, Ottawa, Ontario, Canada; Origin 7.5, OriginLab Corp., Northampton, Mass.). A P value of <0.05 was considered significant.

[3] = 100 μM CORM-2, tPA 100 IU/mL, median, n=8

[C-]#[O+].[C-]#[O+].[C-]#[O+].[C-]#[O+].[C-]#[O+].[C-]#[O+].[Cl][Ru][Cl].[Cl][Ru][Cl] [CORM-2, tricarbonyldichlororuthenium (II) dimer]
effect on clot lifespan [1]: The clot lifespan was increased in all subjects
increase in MRL, % of baseline values [1]: 11-181%
CGT (clot growth time) [2, 3]: 188 s
CLS (clot lifespan) [2, 3]: 378 s
CLT (clot lysis time) [2, 3]: 190 s
MRL (maximum rate of lysis) [2, 3]: −10.0 -dynes/cm^2/sec
MRTG (maximum rate of thrombus generation) [2, 3]: 10.1 dynes/cm^2/sec
TMRL (time to maximum rate of lysis) [2, 3]: 68 s
TMRTG (time to maximum rate of thrombus generation) [2, 3]: 160 s
TTG (total thrombus generation) [2, 3]: 231 dynes/cm^2
increase of CLS ([2]; 100 μM CORM-2 vs unexposed): 14%
increase of the velocity of clot formation ([2]; 100 μM CORM-2 vs unexposed): 35%
prolongation of CLT ([2]; 100 μM CORM-2 vs unexposed): 23%
